The values that follow come from the SangsterLogP compilation.

By logP is commonly meant a log measure of how a compound divides between an organic and an aqueous phase. The low end stands for lower lipophilicity, the high end for higher lipophilicity.

With `O=[N+]([O-])c1ccc2nn[nH]c2c1`, the logP was 1.95.

`O=[N+]([O-])c1ccncc1` showed a logP of 0.6.

`O=[N+]([O-])c1ccc2nc[nH]c2c1` yielded a logP of 1.5.

Consider `Nc1ccc2[nH]ccc2c1`, for which the log partition coefficient (logP) worked out at 1.13.

With `Nc1nc2ccccc2[nH]1`, the logP was found to be 1.34.

For the compound `Nc1cc2ccccc2cc1N`, the logP came to 1.54.

With `Nc1cccc2cccc(N)c12`, the logP was found to be 1.78.

Turning to `Cc1cc(N)c([N+](=O)[O-])cc1C`, the logP was found to be 2.07.

`Nc1cccc2ncccc12` gave a logP of 1.27.

Consider `Cc1ccc(N)c([N+](=O)[O-])c1`, for which the logP came out at 1.82.

With `Nc1ccc2[nH]ncc2c1`, the logP was 0.65.

For the compound `Nc1cccc2c(N)cccc12`, the lipophilicity (logP) amounted to 0.89.
